In data set [1] the test system is pyrethroid resistant bed bugs. Nature of the data set: whole plant or invertebrate. To be noted: Cimex lectularius, 168 h; 7 days; imidacloprid at 0.05% w/w. It is filed as in vivo.
Description: For testing, 10 adult males were transferred into specific bed bug spray containers using soft tissue forceps. Bed bug spray containers were constructed by placing a 150 mm Whatman filter paper (Fisher Scientific, Pittsburgh, Pa., USA) onto the top of a stainless steel, round ring (10 cm in diameter and 3.25 cm in height). A second stainless steel ring of similar dimensions was then stacked on top of the base ring creating a double-ring structure with a filter paper surface in between. The sides of the double ring structure were secured with laboratory labeling tape (Fisher Scientific, Pittsburgh, Pa., USA). In the resulting setup, the filter paper provides a non-abrasive surface for bed bugs to rest on while it also serves to absorb any overspray in the container. Following the transfer of bed bugs from the colony jar, bed bugs were allowed to recover for 1 hour in the spray container before treatment application commenced.
Treatments were administered using a DeVilbiss 151 atomizer (The DeVilbiss Co., Glendale Heights, Ill., USA) attached to a Paasche D500 air compressor (Paasche Airbrush Company, Chicago, Ill., USA). Treatment volume was set at 0.50 g of treatment solution per replication. […]
Mortality at day 7 was analyzed by one-way analysis of variance (ANOVA). […]
The test system of data set [2] is pyrethroid resistant bed bugs, Cimex lectularius (ECL-05 strain). The format is in vivo. Particulars: day 7; 0.05% imidacloprid formulation, not diluted; direct spray 0.50 g per replication.
Protocol: Treatments 1 to 4 were diluted in acetone to 5.5% w/w. Treatment 5 was not diluted.
The ECL-05 strain of bugs was used in the study. This strain represents an aggregate colony of pyrethroid resistant strains of bed bugs from Minnesota, Wisconsin, Florida and New Jersey.
Adult male bed bugs, 5 to 6 weeks old, were sorted from the colonies at the University of Minnesota using a pair of soft tissue forceps (Fisher Scientific, Pittsburgh, Pa., USA). Bed bugs were transferred to Applicant and maintained in a glass jar with a mesh screen top, as described above, in an environmental chamber (Darwin Chamber Company, Saint Louis, Mo., USA) at 27° C. and 65% relative humidity until testing.
For testing, 10 adult males were transferred into specific bed bug spray containers using soft tissue forceps. Bed bug spray containers were constructed by placing a 150 mm Whatman filter paper (Fisher Scientific, Pittsburgh, Pa., USA) onto the top of a stainless steel, round ring (10 cm in diameter and 3.25 cm in height). A second stainless steel ring of similar dimensions was then stacked on top of the base ring creating a double-ring structure with a filter paper surface in between. The sides of the double ring structure were secured with laboratory labeling tape (Fisher Scientific, Pittsburgh, Pa., USA). […]

A word on the mortality: it is the share of the test organisms that died. In data set [1], `O=[N+]([O-])NC1=NCCN1Cc1ccc(Cl)nc1` [Imidacloprid, imidacloprid] returned a mortality at 0.05 % strength of 100%. Besides, the “Mortality (%)” value in data set [2] was 100.0%.

(Values after patent US10130101B2 (priority 2015, dated 2018).)
